Paper PMC9005681, “Use of AD Informer Set compounds to explore validity of novel targets in Alzheimer's disease pathology” (Alzheimer's & Dementia : Translational Research & Clinical …, 2022)
Several values for one entry are separate records, joined by “and”; a condition that tells them apart may be missing. Identical values can stand only once.

How the values were obtained:
Test in all cases: PDSP GPCR panel primary binding assays at 10 μM
[1] = target: T1, cloned human or rodent CNS receptors, channels, and transporters (PDSP panel) (Homo sapiens, UniProt P08912); conditions: Receptor M5, primary assay, 10 μM; for Mean %: mean of Inhibition 1-4
T1 construct: expressed in transfected cells
T1 sequence (P08912 1-532): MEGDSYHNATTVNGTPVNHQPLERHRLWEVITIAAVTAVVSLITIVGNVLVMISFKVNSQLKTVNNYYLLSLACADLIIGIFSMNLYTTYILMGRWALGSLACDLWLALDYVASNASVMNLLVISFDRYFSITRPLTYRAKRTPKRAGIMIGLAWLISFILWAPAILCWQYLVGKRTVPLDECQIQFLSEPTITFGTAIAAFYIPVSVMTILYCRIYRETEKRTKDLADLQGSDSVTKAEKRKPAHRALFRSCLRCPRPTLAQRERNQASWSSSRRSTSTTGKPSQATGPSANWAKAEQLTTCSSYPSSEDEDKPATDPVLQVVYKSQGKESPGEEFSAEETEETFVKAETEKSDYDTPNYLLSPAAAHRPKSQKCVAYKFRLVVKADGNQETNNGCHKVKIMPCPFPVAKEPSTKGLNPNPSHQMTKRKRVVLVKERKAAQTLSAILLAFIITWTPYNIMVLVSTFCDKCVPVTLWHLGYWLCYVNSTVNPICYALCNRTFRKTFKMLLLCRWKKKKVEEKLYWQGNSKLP
Method in brief: (§1)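 Primary screen: 10 μM, quadruplicate, displacement of radio-labeled standard ligand. Hit cut-off >50% mean displacement → secondary 11-point dose-response, triplicate. H3, PBR, GABAA excluded from follow-up.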

[2] = target: T2, cloned human or rodent CNS receptors, channels, and transporters (PDSP panel) (Rattus norvegicus, UniProt P16257); conditions: Receptor PBR, primary assay, 10 μM
T2 construct: expressed in transfected cells
Method in brief: as §1

[3] = target: T3, cloned human or rodent CNS receptors, channels, and transporters (PDSP panel) (Homo sapiens, UniProt P28222); conditions: Receptor 5-HT1B, primary assay, 10 μM; for Mean %: mean of Inhibition 1-4
T3 construct: expressed in transfected cells
T3 sequence (P28222 whole entry): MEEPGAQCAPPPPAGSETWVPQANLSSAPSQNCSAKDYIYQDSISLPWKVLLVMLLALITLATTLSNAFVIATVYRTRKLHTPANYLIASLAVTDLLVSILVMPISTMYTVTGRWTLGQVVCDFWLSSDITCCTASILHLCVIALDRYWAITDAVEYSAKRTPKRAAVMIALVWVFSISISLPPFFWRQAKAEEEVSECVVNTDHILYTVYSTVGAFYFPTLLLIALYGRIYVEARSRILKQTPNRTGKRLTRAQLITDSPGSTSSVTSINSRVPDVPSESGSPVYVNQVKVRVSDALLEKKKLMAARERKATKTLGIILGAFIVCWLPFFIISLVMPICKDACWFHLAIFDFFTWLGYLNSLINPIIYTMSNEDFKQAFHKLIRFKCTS
Method in brief: as §1

[4] = target: T4, cloned human or rodent CNS receptors, channels, and transporters (PDSP panel) (Homo sapiens, UniProt P31645); conditions: Receptor SERT, primary assay, 10 μM; for Mean %: mean of Inhibition 1-4
T4 construct: expressed in transfected cells
T4 sequence (P31645 whole entry): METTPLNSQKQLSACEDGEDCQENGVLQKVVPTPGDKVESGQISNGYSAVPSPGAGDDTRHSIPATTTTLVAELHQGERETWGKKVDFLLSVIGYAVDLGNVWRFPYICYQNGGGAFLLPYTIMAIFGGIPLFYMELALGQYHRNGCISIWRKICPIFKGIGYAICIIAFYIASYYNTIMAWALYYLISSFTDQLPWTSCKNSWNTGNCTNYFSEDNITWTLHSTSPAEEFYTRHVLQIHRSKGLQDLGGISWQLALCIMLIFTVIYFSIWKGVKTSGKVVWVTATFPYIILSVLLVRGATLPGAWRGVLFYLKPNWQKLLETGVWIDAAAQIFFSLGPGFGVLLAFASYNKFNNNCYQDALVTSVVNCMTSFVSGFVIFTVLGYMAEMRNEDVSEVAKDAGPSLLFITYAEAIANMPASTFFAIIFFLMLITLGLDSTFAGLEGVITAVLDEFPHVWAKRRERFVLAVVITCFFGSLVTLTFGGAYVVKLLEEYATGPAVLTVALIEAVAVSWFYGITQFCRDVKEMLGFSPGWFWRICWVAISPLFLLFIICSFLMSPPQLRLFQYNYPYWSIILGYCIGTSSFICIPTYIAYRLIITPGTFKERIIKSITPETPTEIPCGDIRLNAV
Method in brief: as §1

[5] = target: T5, cloned human or rodent CNS receptors, channels, and transporters (PDSP panel) (Homo sapiens, UniProt P41145); conditions: Receptor KOR, primary assay, 10 μM; for Mean %: mean of Inhibition 1-4
T5 construct: expressed in transfected cells
T5 sequence (P41145 whole entry): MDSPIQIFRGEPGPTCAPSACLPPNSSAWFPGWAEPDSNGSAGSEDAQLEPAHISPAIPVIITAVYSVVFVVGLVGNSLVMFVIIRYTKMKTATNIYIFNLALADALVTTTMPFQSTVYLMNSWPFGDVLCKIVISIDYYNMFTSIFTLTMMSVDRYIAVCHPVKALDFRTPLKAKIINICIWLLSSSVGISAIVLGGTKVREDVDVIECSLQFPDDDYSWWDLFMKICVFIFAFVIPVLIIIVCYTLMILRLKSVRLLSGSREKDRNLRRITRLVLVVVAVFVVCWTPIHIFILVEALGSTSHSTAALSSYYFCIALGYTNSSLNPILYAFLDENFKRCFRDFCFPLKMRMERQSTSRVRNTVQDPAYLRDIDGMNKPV
Method in brief: as §1

[6] = target: T6, cloned human or rodent CNS receptors, channels, and transporters (PDSP panel) (Homo sapiens, UniProt P21917); conditions: Receptor D4, primary assay, 10 μM; for Mean %: mean of Inhibition 1-4
T6 construct: expressed in transfected cells
T6 sequence (P21917 1-419): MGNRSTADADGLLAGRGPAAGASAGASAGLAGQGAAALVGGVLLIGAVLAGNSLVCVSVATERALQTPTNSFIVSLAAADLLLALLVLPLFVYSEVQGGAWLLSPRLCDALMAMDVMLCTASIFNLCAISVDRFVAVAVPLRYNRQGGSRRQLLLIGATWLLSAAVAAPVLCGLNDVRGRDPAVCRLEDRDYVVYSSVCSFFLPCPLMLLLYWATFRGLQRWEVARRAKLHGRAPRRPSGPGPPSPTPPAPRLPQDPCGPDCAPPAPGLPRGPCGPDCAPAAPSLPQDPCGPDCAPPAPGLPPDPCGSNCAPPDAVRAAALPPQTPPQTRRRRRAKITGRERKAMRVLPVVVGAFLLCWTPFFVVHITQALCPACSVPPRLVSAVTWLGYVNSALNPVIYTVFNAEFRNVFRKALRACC
Method in brief: as §1

[7] = target: T7, cloned human or rodent CNS receptors, channels, and transporters (PDSP panel) (Homo sapiens, UniProt P08908); conditions: Receptor 5-HT1A, primary assay, 10 μM; for Mean %: mean of Inhibition 1-4
T7 construct: expressed in transfected cells
T7 sequence (P08908 1-422): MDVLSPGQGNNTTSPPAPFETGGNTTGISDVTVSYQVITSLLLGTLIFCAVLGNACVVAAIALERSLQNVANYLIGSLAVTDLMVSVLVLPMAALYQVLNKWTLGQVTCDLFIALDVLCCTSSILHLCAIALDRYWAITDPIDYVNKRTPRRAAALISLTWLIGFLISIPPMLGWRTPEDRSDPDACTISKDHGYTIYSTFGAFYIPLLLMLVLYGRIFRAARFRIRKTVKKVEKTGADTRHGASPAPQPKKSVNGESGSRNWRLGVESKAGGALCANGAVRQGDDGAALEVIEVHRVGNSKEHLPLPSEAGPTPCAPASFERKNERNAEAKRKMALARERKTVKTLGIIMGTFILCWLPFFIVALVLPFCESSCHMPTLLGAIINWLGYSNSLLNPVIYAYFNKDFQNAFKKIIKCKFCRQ
Method in brief: as §1

[8] = target: T8, cloned human or rodent CNS receptors, channels, and transporters (PDSP panel) (Homo sapiens, UniProt P28223); conditions: Receptor 5-HT2A, primary assay, 10 μM; for Mean %: mean of Inhibition 1-4
T8 construct: expressed in transfected cells
T8 sequence (P28223 whole entry): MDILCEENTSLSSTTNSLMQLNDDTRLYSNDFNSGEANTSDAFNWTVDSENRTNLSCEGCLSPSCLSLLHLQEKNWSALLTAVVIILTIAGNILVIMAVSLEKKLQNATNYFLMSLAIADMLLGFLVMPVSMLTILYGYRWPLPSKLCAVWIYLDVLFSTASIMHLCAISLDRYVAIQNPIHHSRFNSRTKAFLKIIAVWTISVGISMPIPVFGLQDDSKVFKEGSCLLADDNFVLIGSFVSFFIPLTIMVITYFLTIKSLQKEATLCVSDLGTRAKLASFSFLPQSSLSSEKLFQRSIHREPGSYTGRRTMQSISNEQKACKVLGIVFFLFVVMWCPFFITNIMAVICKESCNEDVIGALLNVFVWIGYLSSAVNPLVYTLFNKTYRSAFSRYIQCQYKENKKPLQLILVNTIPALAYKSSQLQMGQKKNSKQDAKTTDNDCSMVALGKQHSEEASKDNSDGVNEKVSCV
Method in brief: as §1

[9] = target: T9, cloned human or rodent CNS receptors, channels, and transporters (PDSP panel) (Homo sapiens, UniProt P35367); conditions: Receptor H1, primary assay, 10 μM
T9 construct: expressed in transfected cells
T9 sequence (P35367 whole entry): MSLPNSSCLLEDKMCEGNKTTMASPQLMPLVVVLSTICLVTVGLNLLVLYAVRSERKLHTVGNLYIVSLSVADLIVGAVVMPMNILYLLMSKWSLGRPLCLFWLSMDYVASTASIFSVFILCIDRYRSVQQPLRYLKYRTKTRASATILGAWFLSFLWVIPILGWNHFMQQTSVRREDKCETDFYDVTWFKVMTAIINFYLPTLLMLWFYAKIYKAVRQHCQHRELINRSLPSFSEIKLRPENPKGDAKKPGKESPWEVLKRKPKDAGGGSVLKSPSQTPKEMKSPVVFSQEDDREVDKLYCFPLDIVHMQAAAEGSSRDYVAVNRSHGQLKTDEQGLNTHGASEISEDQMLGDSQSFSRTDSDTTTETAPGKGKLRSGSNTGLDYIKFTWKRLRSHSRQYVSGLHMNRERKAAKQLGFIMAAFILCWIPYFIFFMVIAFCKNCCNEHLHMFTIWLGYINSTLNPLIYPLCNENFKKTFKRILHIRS
Method in brief: as §1

| Compound | Inhibition 1 [1] | Inhibition 2 [1] | Inhibition 3 [1] | Inhibition 4 [1] | Mean % [1] | Inhibition 1 [3] | Inhibition 2 [3] | Inhibition 3 [3] | Inhibition 4 [3] | Mean % [3] | Inhibition 1 [4] | Inhibition 4 [4] | Mean % [4] | Inhibition 1 [5] | Inhibition 2 [5] | Inhibition 3 [5] | Inhibition 4 [5] | Mean % [5] | Inhibition 1 [6] | Inhibition 2 [6] | further results |
| --- | --- | --- | --- | --- | --- | --- | --- | --- | --- | --- | --- | --- | --- | --- | --- | --- | --- | --- | --- | --- | --- |
| c1cn2cc(-c3ccc4cn[nH]c4c3)nc(Nc3ccc(N4CCOCC4)cc3)c2n1 [UNC10302678A, Entospletinib (GS-9973)] | -6.98% | -7.99% | 1.47% | 5.9% | -1.9% | 21.82% | -6.09% | 2.36% | -8.65% | 2.36% | 60.12% | 31.59% and 27.97% | 34.48% and 22.48% | -28.1% | -33.36% | -49.37% | -45.23% | -39.02% | 5.16% | 7.36% | Inhibition 1 [2]: 4.64% and -2.11%; Inhibition 4 [2]: 21.43% and 15.83%; Mean % ([2]; mean of Inhibition 1-4): 13.23% and 8.44%; Inhibition 2 [4]: 23.39% and 14.88%; Inhibition 3 [4]: 22.83% and 32.36%; Inhibition 3 [6]: -2.39%; Inhibition 4 [6]: 2.39%; Mean % [6]: 3.13%; Inhibition 1 [7]: 14.91%; Inhibition 2 [7]: -0.95%; Inhibition 3 [7]: -3.19%; Inhibition 4 [7]: 6.29%; Mean % [7]: 4.27%; Inhibition 1 [8]: -1.01%; Inhibition 2 [8]: -14.98%; Inhibition 3 [8]: -19.59%; Inhibition 4 [8]: -10.22%; Mean % [8]: -11.45% |
| O=c1oc2ccccc2cc1-c1cn2cc(Cc3ccc(F)cc3)sc2n1 [UNC10302680A, iMDK] | -0.74% | -17.55% | -6.68% | -10.7% | -8.92% | 28.3% | -13.17% | 0.98% | -13.17% | 0.74% | -12.44% and -8.39% | -3% and 3.01% | -8.37% and -12.73% | -23.4% | -19.7% | -5.6% | -21.38% | -17.52% | -9.94% | -4.88% | Inhibition 3 [6]: -6.5%; Inhibition 4 [6]: 11.95%; Mean % [6]: -2.34%; Inhibition 1 [7]: 5.77%; Inhibition 2 [7]: 4.57%; Inhibition 3 [7]: -6.98%; Inhibition 4 [7]: 3.71%; Mean % [7]: 1.77%; Inhibition 1 [9]: 99.74%; Inhibition 2 [9]: 88.41%; Inhibition 3 [9]: 71.44%; Inhibition 4 [9]: 51.8%; Mean % ([9]; mean of Inhibition 1-4): 77.85%; Inhibition 1 [8]: 12.31%; Inhibition 2 [8]: -11.86%; Inhibition 3 [8]: -8.41%; Inhibition 4 [8]: 9.68%; Mean % [8]: 0.43% |
